Data on 1 compound can be found in patent US20080255206A1, “Rxr Agonists and Antagonists, Alone or in Combination with Ppar Ligands, in the Treatment of Metabolic and Cardiovascular Diseases” (priority 2005, published 2008).

Data set [1] has as its system skin inflammation induced by Candidin or UV-B. The experiment in a line: Clinical phase I trial, skin inflammation induced by candidin or UV-B irradiation. The data set is classed as in vivo, human. The protocol:
Four healthy volunteers participate. Inclusion criteria are: Age above 18 years, male or female. They are informed, with written letter of consent. Exclusion criteria are: Preexistant dermatological diseases, known allergy to test agents.
Inflammation inducing agents: Candidin is administered intradermally (see also D. Poffet, Comparaison entre le pouvoir vaso-constricteur d'un corticoide topique et l'inhibition de la dermite à la candidine après intradermorèaction (IDR). Thèse, Universitè de Genève, 1984). UV-B rays are administered by a UV-B lamp.
Inflammation is measured quantitatively. The area of the inflamed skin is measured in cm^2. The thickness of the skin is monitored by Ultrasound at 20 MHz. Erythema is measured by colorimetric determination employing a Minolta CR 20. […]
All determinations are recorded on a scale from 0 to 4: • 0=no reduction • 1=slight reduction (10 to 20%) • 2=moderate reduction (21 to 40%) • 3=marked reduction (41 to 70%) • 4=very marked reduction (71 to 100%) • Compared to vehicle control.

The next data set has as its system normal skin of mice. The experiment in a line: Effect on normal, non-inflamed skin of mice. The data set is classed as in vivo, C57BL/6 mice. The protocol: The effect of the RXR antagonist compound 15 on normal skin of mice is investigated. The ears of C57BL/6 mice are treated epicutaneously (topically) for 4 consecutive days with compound 15 in a concentration of 0.05% and 2.5% in acetone/ethanol (1:1, v/v). Comparison with vehicle control. Skin reactions, in particular inflammation, erythema, desquamation, and edema, are observed daily. Myeloperoxidase (MPO) activity is determined. The activity of MPO is considered the most sensitive criterium for the assessment of inflammation of the skin (see above, Examples 6 and 7).

With `CCCCOc1c(\C(C)=C/C=C/C(C)=C/C(=O)O)cc(C(C)(C)C)cc1C(C)(C)C` [Compound 15, (2E,4E,6Z)-7-[2-butoxy-3,5-bis(1,1-dimethylethyl)phenyl]-3-methyl-2,4,6-octatrienoic acid], in data set [1] (4 healthy volunteers, topical, candidin or UV-B induced), the “Reduction of the inflammatory reaction compared to vehicle control” value is listed as “very marked”. For the same compound, the “Anti-inflammatory effect compared with corticosteroids or macrolides” value in data set [1] (topical lotion 1%) is “even superior to that of corticosteroids or macrolides”. Moreover, the “Clinical signs or symptoms of skin inflammation on normal skin” value in the data set with normal skin of mice (epicutaneous 0.05% and 2.5%, 4 consecutive days) was “does not induce clinical signs or symptoms of a skin inflammation”. In the data set on normal skin of mice (normal skin, 0.05%), the “MPO activity compared to the vehicle control (in words)” value is “no significant change”. In addition, the “MPO activity, % of that of the vehicle control” value with normal skin of mice (normal skin, 2.5%) is 57%.
